Source: patent US8937088B2, “Ureas for the treatment and prevention of cancer” (Astar Biotech LLC, priority 2011, dated 2015)
Where two headings read alike, the source gives them in different places.

How the values were obtained:
[1] = test system: patient-derived primary squamous lung 14531 tumor; test: In vivo activity in SCID mouse model with lung cancer, 30-day treatment; conditions: patient-derived primary squamous lung 14531 tumor in mouse, compared to the control
Source text: Biological Test 4. In Vivo Activity in […] SCID Mouse Model with Lung Cancer
Biological Test 5. In Vivo Activity in Senograph SCID Mouse Model with Lung Cancer

[2] = test system: HT29 (human colon adenocarcinoma cell line); test: Cell death detection, trypan blue exclusion assay, HT29; type: cell-based; conditions: HT29, 5-day treatment
Description: (§1) Biological Test 2. Cell Death Detection Using Trypan Blue Exclusion Assay.
(§2) After drug treatment, cells were harvested by trypsinization with trypsin/EDTA for 10 min at 37° C. As some apoptotic cells detached from the culture substratum into the medium, these cells were also collected by centrifugation of the medium at 1,200 rpm for 5 min. The pooled cell pellets were resuspended and mixed with trypan blue dye. After Trypan blue stain was done, cells were counted by using a light microscope and a hemocytometer. Blue dye-incorporating cells were scored as being dead. Five hundred cells from randomly chosen fields were counted, and the number of dead cells was counted and expressed as a percentage of the total number of cells counted as shown in Tables 2 to 8 below.

[3] = test system: HUH7 (human hepatoma cell line); test: Cell death detection, trypan blue exclusion assay, HUH7, in combination with AZD-6244; type: cell-based; conditions: HUH7, 6-day treatment, compound 0.5 μM
Description: as §1, §2

[4] = test system: HepG2 (human Hepatocellular carcinoma cell line); test: Cell death detection, trypan blue exclusion assay, HepG2; type: cell-based; conditions: HepG2, 5-day treatment
Description: as §1, §2

[5] = test system: Hep3B (human hepatoma cell line); test: Cell death detection, trypan blue exclusion assay, Hep3B; type: cell-based; conditions: 5-day treatment
Description: as §1, §2

[6] = test system: LNCaP (human prostate adenocarcinoma cell line); test: Cell death detection, trypan blue exclusion assay, LNCaP; type: cell-based; conditions: read-out: Cell Death (%) at Tested Concentration
Description: as §1, §2

[7] = molecular target: KDR(VEGFR2) (Homo sapiens, UniProt P35968); test: In vitro kinase assay (Invitrogen SelectScreen Profiling Service), KDR; type: biochemical
Chain of KDR(VEGFR2) (P35968 20-1356): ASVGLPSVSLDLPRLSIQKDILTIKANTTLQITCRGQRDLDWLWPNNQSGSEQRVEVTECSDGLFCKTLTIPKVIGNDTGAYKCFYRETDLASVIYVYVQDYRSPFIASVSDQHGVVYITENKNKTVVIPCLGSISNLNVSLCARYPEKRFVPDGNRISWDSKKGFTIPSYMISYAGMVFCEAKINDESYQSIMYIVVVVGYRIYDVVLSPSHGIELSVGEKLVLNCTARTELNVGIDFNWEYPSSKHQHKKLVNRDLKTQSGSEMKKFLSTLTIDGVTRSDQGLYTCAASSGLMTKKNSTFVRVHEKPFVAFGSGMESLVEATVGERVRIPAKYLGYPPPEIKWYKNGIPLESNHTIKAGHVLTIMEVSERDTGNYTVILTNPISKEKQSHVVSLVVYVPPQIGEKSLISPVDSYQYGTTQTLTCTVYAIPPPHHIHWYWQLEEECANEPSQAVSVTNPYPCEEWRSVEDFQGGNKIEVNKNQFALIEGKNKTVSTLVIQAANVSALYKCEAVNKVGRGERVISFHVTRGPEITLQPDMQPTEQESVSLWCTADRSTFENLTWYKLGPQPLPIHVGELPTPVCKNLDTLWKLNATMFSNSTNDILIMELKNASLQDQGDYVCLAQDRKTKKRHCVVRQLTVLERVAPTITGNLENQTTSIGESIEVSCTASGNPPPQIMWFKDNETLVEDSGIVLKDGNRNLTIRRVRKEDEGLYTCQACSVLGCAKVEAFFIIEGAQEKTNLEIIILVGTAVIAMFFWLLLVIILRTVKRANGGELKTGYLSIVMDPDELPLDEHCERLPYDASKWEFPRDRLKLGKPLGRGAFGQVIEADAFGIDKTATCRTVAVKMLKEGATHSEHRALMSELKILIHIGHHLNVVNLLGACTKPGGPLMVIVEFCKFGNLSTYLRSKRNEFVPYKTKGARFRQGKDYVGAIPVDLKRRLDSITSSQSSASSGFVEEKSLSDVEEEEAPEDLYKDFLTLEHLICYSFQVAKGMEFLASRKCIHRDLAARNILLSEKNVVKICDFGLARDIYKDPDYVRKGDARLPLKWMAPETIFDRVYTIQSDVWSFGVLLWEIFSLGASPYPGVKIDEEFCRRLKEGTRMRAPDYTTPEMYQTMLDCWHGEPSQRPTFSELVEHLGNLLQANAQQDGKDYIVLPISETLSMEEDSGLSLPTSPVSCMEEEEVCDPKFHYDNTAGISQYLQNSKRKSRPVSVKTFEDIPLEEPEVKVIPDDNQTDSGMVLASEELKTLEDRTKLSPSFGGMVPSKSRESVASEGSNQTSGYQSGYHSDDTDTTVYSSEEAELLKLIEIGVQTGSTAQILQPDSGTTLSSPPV
Description: (§3) Biological Test 1. In Vitro Kinase Assay for BRAF, FLT3 and KDR(VEGFR2) The inhibitory activities of the compounds of the invention were measured by Invitrogen's SelectScreen® Profiling Service.

[8] = test system: HUH7 (human hepatoma cell line); test: Cell death detection, trypan blue exclusion assay, HUH7; type: cell-based; conditions: Huh-7, 168 h, HUH7, 7-day treatment, read-out: Cell Death (%) at Tested Concentration
Description: as §1, §2

[9] = molecular target: BRAF (Homo sapiens, UniProt P15056); test: In vitro kinase assay (Invitrogen SelectScreen Profiling Service), BRAF; type: biochemical
Chain of BRAF (P15056 whole entry): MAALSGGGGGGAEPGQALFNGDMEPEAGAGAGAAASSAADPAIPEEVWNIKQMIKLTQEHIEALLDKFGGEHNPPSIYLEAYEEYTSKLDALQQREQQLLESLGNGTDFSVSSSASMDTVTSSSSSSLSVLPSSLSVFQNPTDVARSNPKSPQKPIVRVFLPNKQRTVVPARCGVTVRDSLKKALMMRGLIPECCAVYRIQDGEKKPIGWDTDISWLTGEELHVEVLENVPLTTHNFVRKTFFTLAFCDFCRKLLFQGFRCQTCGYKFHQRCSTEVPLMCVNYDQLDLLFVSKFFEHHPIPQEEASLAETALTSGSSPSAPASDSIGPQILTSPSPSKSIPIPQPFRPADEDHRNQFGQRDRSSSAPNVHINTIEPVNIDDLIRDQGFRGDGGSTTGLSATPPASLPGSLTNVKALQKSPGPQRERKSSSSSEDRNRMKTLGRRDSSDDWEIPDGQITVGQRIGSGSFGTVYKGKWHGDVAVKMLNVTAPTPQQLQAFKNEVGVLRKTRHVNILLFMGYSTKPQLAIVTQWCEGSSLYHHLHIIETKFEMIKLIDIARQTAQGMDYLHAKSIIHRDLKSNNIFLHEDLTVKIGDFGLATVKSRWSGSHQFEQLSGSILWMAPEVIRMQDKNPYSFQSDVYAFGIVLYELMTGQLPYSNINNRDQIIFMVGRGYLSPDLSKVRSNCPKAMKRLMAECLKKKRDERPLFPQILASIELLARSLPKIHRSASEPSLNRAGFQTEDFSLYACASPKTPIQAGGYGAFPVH
Description: as §3

[10] = molecular target: T1, FLT3 (Homo sapiens, UniProt P36888); test: In vitro kinase assay (Invitrogen SelectScreen Profiling Service), FLT3; type: biochemical; conditions: FLT3, 0.1 μM
T1 sequence (P36888 27-993): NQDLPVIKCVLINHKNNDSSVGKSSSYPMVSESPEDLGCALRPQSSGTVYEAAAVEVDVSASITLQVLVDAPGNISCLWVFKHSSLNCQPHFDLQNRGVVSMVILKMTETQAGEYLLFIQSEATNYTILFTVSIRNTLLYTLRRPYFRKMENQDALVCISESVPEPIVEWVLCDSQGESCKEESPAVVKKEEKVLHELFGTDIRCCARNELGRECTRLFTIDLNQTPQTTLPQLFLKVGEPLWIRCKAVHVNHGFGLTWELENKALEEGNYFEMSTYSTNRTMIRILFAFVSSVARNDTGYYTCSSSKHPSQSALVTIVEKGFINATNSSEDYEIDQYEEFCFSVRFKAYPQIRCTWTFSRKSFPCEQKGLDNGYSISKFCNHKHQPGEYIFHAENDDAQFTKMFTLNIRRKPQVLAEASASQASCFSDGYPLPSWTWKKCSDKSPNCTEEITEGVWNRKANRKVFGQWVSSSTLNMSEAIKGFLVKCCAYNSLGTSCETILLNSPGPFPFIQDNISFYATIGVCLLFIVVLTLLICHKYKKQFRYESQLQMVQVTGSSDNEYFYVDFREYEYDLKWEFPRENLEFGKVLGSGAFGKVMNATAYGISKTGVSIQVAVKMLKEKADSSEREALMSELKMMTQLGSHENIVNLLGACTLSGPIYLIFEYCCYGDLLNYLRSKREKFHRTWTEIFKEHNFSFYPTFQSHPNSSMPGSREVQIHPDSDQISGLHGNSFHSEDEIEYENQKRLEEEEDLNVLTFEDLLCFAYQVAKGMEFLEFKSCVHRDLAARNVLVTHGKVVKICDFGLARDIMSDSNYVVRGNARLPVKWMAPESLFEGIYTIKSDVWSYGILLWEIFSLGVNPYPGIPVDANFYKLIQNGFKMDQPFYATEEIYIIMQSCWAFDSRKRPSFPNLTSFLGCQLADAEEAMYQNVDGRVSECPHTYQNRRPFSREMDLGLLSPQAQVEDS
Description: as §3

| SMILES | effect in reducing the tumor volume [1] | Cell Death (%) at Tested Concentration ([2]; 2.5 uM) [%] | Cell Death (%) at Tested Concentration ([2]; 5.0 uM) [%] | Cell Death (%) at Tested Concentration ([2]; 10 uM) [%] | Cell Death (%) in combination with AZD-6244 ([3]; AZD-6244 0 μM) [%] | Cell Death (%) in combination with AZD-6244 ([3]; AZD-6244 0.5 μM) [%] | Cell Death (%) at Tested Concentration ([4]; 0.25 uM) [%] | Cell Death (%) at Tested Concentration ([4]; 3.0 uM) [%] | Cell Death (%) at Tested Concentration ([4]; 5.0 uM) [%] | Cell Death (%) at Tested Concentration ([5]; 0.25 uM) [%] | Cell Death (%) at Tested Concentration ([5]; 3.0 uM) [%] | Cell Death (%) at Tested Concentration ([5]; 5.0 uM) [%] | cytotoxicity at 1 µM ([6]; 72 h, 3-day treatment) [%] | cytotoxicity at 2.5 µM ([6]; 72 h, 3-day treatment) [%] | cytotoxicity at 5 µM ([6]; 72 h, 3-day treatment) [%] | cytotoxicity at 7.5 µM ([6]; 72 h, 3-day treatment) [%] | cytotoxicity at 10 µM ([6]; 72 h, 3-day treatment) [%] | cytotoxicity at 1 µM ([6]; 168 h, 7-day treatment) [%] | cytotoxicity at 2.5 µM ([6]; 168 h, 7-day treatment) [%] | cytotoxicity at 5 µM ([6]; 168 h, 7-day treatment) [%] | also measured |
| --- | --- | --- | --- | --- | --- | --- | --- | --- | --- | --- | --- | --- | --- | --- | --- | --- | --- | --- | --- | --- | --- |
| CNC(=O)c1cc(Oc2ccc(NC(=O)Nc3ccc(Cl)c(C(F)(F)F)c3)cc2)ccn1 [Sorafenib, reference compound] | significant effect in reducing the tumor volume | 11.6 | 14.3 | 27.6 | 1.9 | 97.3 | 2.2 | 6.4 | 8.2 | 3.0 | 12.5 | 88.2 | 1.6 | 1.7 | 2.3 | 2.4 | 81.3 | 1.6 | 1.6 | 2.8 | cytotoxicity at 7.5 µM ([6]; 168 h, 7-day treatment): 14.7%; cytotoxicity at 10 µM ([6]; 168 h, 7-day treatment): 99% |
| CNC(=O)c1cc(Oc2ccc(NC(=O)Nc3ccc(Cl)c(S(F)(F)(F)(F)F)c3)c(F)c2)ccn1 [Example 4, 4-[4-({[4-chloro-3-(pentafluoro-λ^6-sulfanyl)phenyl]carbamoyl}amino)-3-fluorophenoxy]-N-methylpyridine-2-carboxamide] | significant effect in reducing the tumor volume | 11.6 | 13.8 | 44.6 | 2.6 | 99 | 1.9 | 4.5 | 27.6 | 4.6 | 67.2 | 96.7 | 1.8 | 1.4 | 2.8 | 46.8 | 94.8 | 1.4 | 2.7 | 69.4 | inhibition at 0.1 µM [7]: 36%; cytotoxicity at 1 µM [8]: 2.8%; cytotoxicity at 2.5 µM [8]: 3.1%; cytotoxicity at 5 µM [8]: 59.8%; cytotoxicity at 7.5 µM [8]: 91.4%; cytotoxicity at 10 µM [8]: 93.4%; inhibition at 0.1 µM [9]: 8%; cytotoxicity at 7.5 µM ([6]; 168 h, 7-day treatment): 99%; cytotoxicity at 10 µM ([6]; 168 h, 7-day treatment): 99%; inhibition at 0.1 µM [10]: 51% |
| CNC(=O)c1cc(Oc2ccc(NC(=O)Nc3ccc(S(F)(F)(F)(F)F)cc3)c(F)c2)ccn1 [Example 10, 4-[3-fluoro-4-({[4-(pentafluoro-λ^6-sulfanyl)phenyl]carbamoyl}amino)phenoxy]-N-methylpyridine-2-carboxamide] | significant effect in reducing the tumor volume | 18.3 | 54.6 | 56.7 | 1.7 | 94.6 | 2.7 | 4.2 | 4.8 | 3.4 | 7.6 | 19.5 | 1.8 | 1.9 | 9.4 | 11.3 | 68.3 | 2.2 | 2.8 | 99 | cytotoxicity at 1 µM [8]: 1.9%; cytotoxicity at 2.5 µM [8]: 2.2%; cytotoxicity at 5 µM [8]: 17.2%; cytotoxicity at 7.5 µM [8]: 87.6%; cytotoxicity at 10 µM [8]: 93.7%; cytotoxicity at 7.5 µM ([6]; 168 h, 7-day treatment): 99%; cytotoxicity at 10 µM ([6]; 168 h, 7-day treatment): 99% |
